Results on 3 molecules are retold here after US12391684B2, “Pharmaceutical formulations and methods for the treatment of gastrointestinal disorders” (Renexxion, LLC, priority 2018, dated 2025).

Data set [1] in a line: Dehydration profile by thermographic analysis (TGA). Format: physicochemical. The settings on record: dry nitrogen, 5° C./minute, 25° C. to 250° C. As for the experimental part:
Thermographic analysis (TGA) curves were generated for the anhydrate and trihydrate using a Perkin Elmer TGA-7. Three to five milligram samples were weighed into aluminum sample pans and run under dry nitrogen at 5° C./minute from 25° C. to 250° C. The data were exported to Excel to enable plotting.

Data set [2] in a line: 12-month stability of the anhydrous form in stability chambers (HPLC purity, water content). It is filed as physicochemical. The settings on record: 25° C./60% RH. As for the experimental part:
The dihydrochloride salt, anhydrous form of (3S, 4R, 3′R)-6-[4-(4-amino-5-chloro-2-methoxy-benzoylamino)-3-methoxy-piperidin-1-yl]-hexanoic acid 1-azabicyclo[2.2.2]oct-3′-yl ester, was placed in stability chambers with temperature and humidity controlled, for up to 12 months. The temperature was set at 25° C., and the relative humidity was set at 60%. The samples were assayed at time zero, then at 3, 6, 9, and 12 months using an HPLC method. The HPLC conditions were as follows: • Column: Inertsil C8-3, 250 mm length, 3 mm diameter, 5 μm particle size • Mobile Phase A: 2000 mL water+3 mL formic acid • Mobile Phase B: 1000 mL methanol+3 mL formic acid • Flow rate: 0.6 mL/min • Detection wavelength: 275 nm • Injection volume: 20 uL • Time: 50 minutes

Data set [3] is described as follows: Stability of the trihydrate form stored in bulk in a GMP storage facility. Format: physicochemical. As to conditions: room temperature, relative humidity >30%, up to 11 years. As for the experimental part: The trihydrate form was evaluated for stability with regard to purity and strength over a time period of up to 11 years, by storing it in a GMP facility under controlled conditions of temperature and relative humidity (temperature=room temperature and relative humidity >30%).

For data set [4] the following is noted: for Resulting Form: Antisolvent Water, Ambient, stirred 3 weeks. As for the experimental part:
Noncompetitive Slurry Experiments for Polymorph Screening: Noncompetitive slurry experiments were performed as a supplemental polymorph screening method. When suspensions of a polymorphic material are prepared, any polymorphic form with a lower solubility (more thermodynamically stable form) can nucleate. The nucleated forms can convert all the residual solids to the nucleated form via solvent-mediated phase transition. Suspensions of the isolated Form I were prepared by adding excess solid to several different solvent systems. The suspensions were stirred vigorously at ambient temperature for 3 weeks. The remaining solids were collected by vacuum filtration and analyzed by powder X-ray diffraction to determine if any changes in the crystalline form of the solids occurred.

Counter-ions that a name gives are not always drawn. Like-named read-outs stand apart in the source and are kept apart here.

With `COc1cc(N)c(Cl)cc1C(=O)N[C@@H]1CCN(CCCCCC(=O)O[C@H]2CN3CCC2CC3)C[C@@H]1OC` [(3S, 4R, 3′R)-6-[4-(4-amino-5-chloro-2-methoxy-benzoylamino)-3-methoxy-piperidin-1-yl]-hexanoic acid 1-azabicyclo[2.2.2]oct-3′-yl ester], in data set [1], the “Dehydration mass loss (TGA)” value is “absent”. The “Purity HPLC (Area %)” value is given as 99.2 Area % in data set [2] (3 months); 99.3 Area % in data set [2] (6 months); 99.2 Area % in data set [2] (9 months); 99.3 Area % in data set [2] (12 months); 99.3 Area % in data set [2] (time 0 months). For the same molecule, the “Water Content” value came out at 6.47% in data set [2] (3 months); 8.47% in data set [2] (6 months); 8.47% in data set [2] (6 months, listed as Anhydrous Form of the Dihydrochloride Salt); 8.20% in data set [2] (9 months); 8.43% in data set [2] (12 months); 0.45% in data set [2] (time 0 months). Also, the “Water Content” value in data set [2] (time 0 months, listed as Anhydrous Form of the Dihydrochloride Salt) was determined as 0.45%. Besides, the “Decrease in strength of the active ingredient due to increase in water content” value in data set [2] (up to 12 months) is recorded as “approximately 8%”. Moreover, the “Purity of the compound versus specifications (Purity HPLC Area %)” value in data set [2] (up to 12 months) is “remained within the specifications”.
In the case of `COc1cc(N)c(Cl)cc1C(=O)N[C@@H]1CCN(CCCCCC(=O)O[C@H]2CN3CCC2CC3)C[C@@H]1OC` [Compound 1, (3S, 4R, 3′R)-6-[4-(4-amino-5-chloro-2-methoxy-benzoylamino)-3-methoxy-piperidin-1-yl]-hexanoic acid 1-azabicyclo[2.2.2]oct-3′-yl ester di-hydrochloride salt], in data set [3], the “Stability under GMP storage” value is “stable under GMP storage”.
Consider `COc1cc(N)c(Cl)cc1C(=O)N[C@@H]1CCN(CCCCCC(=O)O[C@H]2CN3CCC2CC3)C[C@@H]1OC` [Form I, (3S, 4R, 3′R)-6-[4-(4-amino-5-chloro-2-methoxy-benzoylamino)-3-methoxy-piperidin-1-yl]-hexanoic acid 1-azabicyclo[2.2.2]oct-3′-yl ester], for which the “Resulting Form” value in data set [4] (Solvent 1-Propanol), in data set [4] (Solvent Acetonitrile), in data set [4] (Solvent Ethanol), in data set [4] (Solvent Methanol) and in data set [4] (Solvent Water) was “Form 1” each time. For the same molecule, in data set [4] (outcome of the slurry experiments), the “Thermodynamic stability among anhydrous forms” value was “most thermodynamically stable anhydrous form”.
